The kinase profiling compilation of Christmann-Franck et al. (2016)

Key:
Assay in all cases: radiometric filter-binding kinase assay, Kinase HotSpot
Settings in all cases: compound 0.5 µM; ATP 10 µM
AURKC (human) = AURKC (human) (UniProt Q9UQB9)
CAMK2G (human) = CAMK2G (human) (UniProt Q13555)
CSK (human) = CSK (human) (UniProt P41240)
STK17A (human) = STK17A (human) (UniProt Q9UEE5)
MAPK1 (human) = MAPK1 (human) (UniProt P28482)
ULK1 (human) = ULK1 (human) (UniProt O75385)
GRK4 (human) = GRK4 (human) (UniProt P32298)
BRSK2 (human) = BRSK2 (human) (UniProt Q8IWQ3)
ADRBK1 (human) = ADRBK1 (human) (UniProt P25098)
WNK2 (human) = WNK2 (human) (UniProt Q9Y3S1)
PRKCB2 (human) = PRKCB2 (human) (UniProt P05771)
PHKG2 (human) = PHKG2 (human) (UniProt P15735)
PRKACA (human) = PRKACA (human) (UniProt P17612)
ITK (human) = ITK (human) (UniProt Q08881)
IKBKB (human) = IKBKB (human) (UniProt O14920)
KDR (human) = KDR (human) (UniProt P35968)
HIPK3 (human) = HIPK3 (human) (UniProt Q9H422)
MLTK (human) = MLTK (human) (UniProt Q9NYL2)
CDK2 CCNE1 (human) = CDK2 CCNE1 (human) (UniProt P24941+P24864)
CHEK1 (human) = CHEK1 (human) (UniProt O14757)
CDC42BPB (human) = CDC42BPB (human) (UniProt Q9Y5S2)
ULK2 (human) = ULK2 (human) (UniProt Q8IYT8)
GSK3B (human) = GSK3B (human) (UniProt P49841)
MAPKAPK2 (human) = MAPKAPK2 (human) (UniProt P49137)
GRK7 (human) = GRK7 (human) (UniProt Q8WTQ7)
AKT2 (human) = AKT2 (human) (UniProt P31751)
FLT1 (human) = FLT1 (human) (UniProt P17948)
TAOK3 (human) = TAOK3 (human) (UniProt Q9H2K8)
STK24 (human) = STK24 (human) (UniProt Q9Y6E0)
MAP3K3 (human) = MAP3K3 (human) (UniProt Q99759)
NEK9 (human) = NEK9 (human) (UniProt Q8TD19)
MAP3K8 (human) = MAP3K8 (human) (UniProt P41279)
TEC (human) = TEC (human) (UniProt P42680)
ROS1 (human) = ROS1 (human) (UniProt P08922)
CDK1 CCNA2 (human) = CDK1 CCNA2 (human) (UniProt P06493+P20248)
OXSR1 (human) = OXSR1 (human) (UniProt O95747)
MAPK8 (human) = MAPK8 (human) (UniProt P45983)
CDK4 CCND1 (human) = CDK4 CCND1 (human) (UniProt P24385+P11802)
MAP3K14 (human) = MAP3K14 (human) (UniProt Q99558)
JAK2 JH1 JH2 (human) = JAK2 JH1 JH2 (human) (UniProt O60674)
HIPK1 (human) = HIPK1 (human) (UniProt Q86Z02)
TEK (human) = TEK (human) (UniProt Q02763)

STK24 (human), sequence (Q9Y6E0 whole entry, looked up): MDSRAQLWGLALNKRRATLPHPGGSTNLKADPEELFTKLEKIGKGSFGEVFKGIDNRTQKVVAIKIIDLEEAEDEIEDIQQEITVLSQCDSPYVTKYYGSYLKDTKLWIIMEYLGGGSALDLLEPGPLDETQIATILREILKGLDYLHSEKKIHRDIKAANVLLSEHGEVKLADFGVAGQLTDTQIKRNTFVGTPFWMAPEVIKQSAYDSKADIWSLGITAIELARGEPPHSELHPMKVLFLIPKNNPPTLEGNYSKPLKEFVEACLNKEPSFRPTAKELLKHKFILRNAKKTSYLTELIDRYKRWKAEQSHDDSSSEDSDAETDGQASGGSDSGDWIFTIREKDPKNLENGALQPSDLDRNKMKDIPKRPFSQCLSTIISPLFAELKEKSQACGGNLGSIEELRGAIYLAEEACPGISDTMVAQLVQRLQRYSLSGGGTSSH
WNK2 (human), sequence (Q9Y3S1 whole entry, looked up): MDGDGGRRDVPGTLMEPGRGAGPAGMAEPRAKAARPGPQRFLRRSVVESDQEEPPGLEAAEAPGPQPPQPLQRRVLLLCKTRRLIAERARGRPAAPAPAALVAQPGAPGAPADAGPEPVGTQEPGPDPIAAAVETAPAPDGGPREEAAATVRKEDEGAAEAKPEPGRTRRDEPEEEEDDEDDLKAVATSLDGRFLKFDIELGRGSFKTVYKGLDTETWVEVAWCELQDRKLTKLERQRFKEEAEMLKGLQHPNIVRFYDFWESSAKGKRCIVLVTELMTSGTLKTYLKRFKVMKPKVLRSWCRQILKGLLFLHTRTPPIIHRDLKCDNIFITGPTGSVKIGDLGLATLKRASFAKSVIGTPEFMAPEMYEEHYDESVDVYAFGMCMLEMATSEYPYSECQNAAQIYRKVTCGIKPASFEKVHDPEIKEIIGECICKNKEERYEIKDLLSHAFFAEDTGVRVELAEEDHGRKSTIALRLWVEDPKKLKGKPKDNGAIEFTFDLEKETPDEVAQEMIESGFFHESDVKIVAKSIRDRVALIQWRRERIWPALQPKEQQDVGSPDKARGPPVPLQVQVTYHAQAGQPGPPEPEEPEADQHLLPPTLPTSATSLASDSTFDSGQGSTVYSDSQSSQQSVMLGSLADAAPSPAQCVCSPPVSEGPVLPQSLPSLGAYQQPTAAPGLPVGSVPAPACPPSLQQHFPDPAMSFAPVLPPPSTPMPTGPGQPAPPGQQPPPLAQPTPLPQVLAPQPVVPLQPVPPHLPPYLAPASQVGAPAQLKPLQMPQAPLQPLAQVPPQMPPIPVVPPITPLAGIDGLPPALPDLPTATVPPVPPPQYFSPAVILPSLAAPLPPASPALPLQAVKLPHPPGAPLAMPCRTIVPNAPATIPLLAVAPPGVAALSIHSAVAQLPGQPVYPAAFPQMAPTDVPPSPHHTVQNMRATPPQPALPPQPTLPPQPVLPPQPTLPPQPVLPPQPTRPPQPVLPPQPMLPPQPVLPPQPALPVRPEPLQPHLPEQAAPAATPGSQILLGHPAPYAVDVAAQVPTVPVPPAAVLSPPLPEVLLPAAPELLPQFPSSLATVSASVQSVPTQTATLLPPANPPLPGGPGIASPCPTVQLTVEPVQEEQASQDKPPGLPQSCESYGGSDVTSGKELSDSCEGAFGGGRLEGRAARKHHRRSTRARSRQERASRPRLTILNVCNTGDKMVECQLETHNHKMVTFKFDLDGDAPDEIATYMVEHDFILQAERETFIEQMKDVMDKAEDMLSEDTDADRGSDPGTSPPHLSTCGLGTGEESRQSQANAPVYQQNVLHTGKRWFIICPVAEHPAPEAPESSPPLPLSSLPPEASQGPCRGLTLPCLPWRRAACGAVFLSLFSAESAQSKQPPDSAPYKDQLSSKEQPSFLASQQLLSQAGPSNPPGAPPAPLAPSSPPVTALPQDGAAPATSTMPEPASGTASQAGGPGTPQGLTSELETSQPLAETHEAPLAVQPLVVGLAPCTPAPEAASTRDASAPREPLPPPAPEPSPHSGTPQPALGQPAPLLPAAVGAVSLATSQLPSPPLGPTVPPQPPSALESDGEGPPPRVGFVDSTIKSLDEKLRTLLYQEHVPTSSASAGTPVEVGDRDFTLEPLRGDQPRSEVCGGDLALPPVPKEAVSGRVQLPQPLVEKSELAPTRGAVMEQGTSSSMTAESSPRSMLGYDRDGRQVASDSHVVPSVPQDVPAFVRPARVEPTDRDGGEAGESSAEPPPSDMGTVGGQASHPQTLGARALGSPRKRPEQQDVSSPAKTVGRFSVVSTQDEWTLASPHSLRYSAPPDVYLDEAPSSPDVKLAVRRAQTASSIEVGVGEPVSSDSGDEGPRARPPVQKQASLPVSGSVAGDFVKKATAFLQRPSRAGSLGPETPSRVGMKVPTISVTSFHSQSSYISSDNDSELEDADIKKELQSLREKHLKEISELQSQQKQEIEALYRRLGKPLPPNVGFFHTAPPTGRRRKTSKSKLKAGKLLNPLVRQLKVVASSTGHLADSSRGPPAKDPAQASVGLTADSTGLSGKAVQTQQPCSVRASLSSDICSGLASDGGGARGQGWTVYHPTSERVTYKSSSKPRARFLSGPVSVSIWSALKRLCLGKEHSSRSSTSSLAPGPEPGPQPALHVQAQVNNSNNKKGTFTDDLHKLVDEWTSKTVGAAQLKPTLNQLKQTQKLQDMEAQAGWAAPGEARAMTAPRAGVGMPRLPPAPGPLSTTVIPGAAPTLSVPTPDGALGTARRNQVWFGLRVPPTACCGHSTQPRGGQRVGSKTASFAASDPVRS
MAP3K8 (human), sequence (P41279 whole entry, looked up): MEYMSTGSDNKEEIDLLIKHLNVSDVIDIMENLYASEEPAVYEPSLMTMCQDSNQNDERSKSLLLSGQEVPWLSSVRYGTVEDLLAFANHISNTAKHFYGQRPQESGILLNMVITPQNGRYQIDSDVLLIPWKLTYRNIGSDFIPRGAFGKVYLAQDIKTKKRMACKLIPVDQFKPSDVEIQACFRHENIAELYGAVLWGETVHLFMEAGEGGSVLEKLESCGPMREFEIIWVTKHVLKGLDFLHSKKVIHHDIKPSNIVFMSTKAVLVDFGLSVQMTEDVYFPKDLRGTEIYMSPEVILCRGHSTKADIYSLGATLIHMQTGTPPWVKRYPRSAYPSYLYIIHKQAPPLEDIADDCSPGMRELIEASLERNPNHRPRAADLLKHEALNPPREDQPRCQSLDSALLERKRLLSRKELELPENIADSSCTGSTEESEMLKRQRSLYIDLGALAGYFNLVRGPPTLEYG
FLT1 (human), sequence (P17948 whole entry, looked up): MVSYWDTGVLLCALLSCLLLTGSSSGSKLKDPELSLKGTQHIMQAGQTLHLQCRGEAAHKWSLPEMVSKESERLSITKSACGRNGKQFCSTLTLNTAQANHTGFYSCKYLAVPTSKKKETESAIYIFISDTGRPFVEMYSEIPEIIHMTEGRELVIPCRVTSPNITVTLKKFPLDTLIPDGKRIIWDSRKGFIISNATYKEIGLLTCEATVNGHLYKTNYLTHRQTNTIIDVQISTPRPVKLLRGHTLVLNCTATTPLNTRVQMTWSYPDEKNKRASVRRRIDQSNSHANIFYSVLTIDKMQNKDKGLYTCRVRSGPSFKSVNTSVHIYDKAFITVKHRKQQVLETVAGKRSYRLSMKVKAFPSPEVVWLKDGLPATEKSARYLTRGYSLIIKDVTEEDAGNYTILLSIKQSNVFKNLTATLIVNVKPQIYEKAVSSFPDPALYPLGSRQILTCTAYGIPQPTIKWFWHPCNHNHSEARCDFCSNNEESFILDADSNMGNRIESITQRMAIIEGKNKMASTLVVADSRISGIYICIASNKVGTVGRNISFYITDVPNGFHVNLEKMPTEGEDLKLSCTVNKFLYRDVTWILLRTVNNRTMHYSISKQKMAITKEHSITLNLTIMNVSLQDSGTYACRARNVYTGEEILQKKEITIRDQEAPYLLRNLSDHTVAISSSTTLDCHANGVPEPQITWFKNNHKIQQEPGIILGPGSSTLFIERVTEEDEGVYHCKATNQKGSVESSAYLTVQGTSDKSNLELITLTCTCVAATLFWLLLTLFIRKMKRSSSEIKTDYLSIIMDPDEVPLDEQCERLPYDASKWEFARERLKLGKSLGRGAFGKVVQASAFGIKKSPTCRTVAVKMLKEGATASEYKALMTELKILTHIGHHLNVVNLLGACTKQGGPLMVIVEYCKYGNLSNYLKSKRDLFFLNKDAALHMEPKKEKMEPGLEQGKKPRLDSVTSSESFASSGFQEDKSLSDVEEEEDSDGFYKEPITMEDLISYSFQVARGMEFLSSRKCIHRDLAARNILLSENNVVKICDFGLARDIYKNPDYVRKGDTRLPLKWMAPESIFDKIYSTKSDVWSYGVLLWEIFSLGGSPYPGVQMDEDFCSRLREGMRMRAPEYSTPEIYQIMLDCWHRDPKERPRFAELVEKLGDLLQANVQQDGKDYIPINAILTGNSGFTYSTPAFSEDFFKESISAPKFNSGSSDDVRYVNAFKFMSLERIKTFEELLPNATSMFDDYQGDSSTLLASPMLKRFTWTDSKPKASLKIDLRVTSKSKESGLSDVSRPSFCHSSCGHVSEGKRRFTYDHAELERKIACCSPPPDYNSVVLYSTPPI
MAPK1 (human), sequence (P28482 whole entry, looked up): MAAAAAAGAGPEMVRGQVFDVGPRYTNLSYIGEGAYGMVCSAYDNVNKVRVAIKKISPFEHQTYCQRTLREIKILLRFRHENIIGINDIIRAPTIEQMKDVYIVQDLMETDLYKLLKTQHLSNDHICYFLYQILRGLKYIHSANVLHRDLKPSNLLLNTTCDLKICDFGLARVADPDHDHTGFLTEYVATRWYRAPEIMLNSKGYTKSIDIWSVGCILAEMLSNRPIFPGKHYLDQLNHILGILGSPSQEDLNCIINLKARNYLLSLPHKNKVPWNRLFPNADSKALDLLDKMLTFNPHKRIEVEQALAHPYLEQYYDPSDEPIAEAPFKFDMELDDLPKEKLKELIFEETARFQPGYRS

O=C(c1ccccc1)c1ccc(N2CCOCC2)cc1O
residual activity (AURKC (human)): 102% | residual activity (CAMK2G (human)): 94% | residual activity (CSK (human)): 101% | residual activity (STK17A (human)): 97.9% | residual activity (MAPK1 (human)): 96.7% | residual activity (ULK1 (human)): 98.9% | residual activity (GRK4 (human)): 104% | residual activity (BRSK2 (human)): 95.5% | residual activity (ADRBK1 (human)): 99.6% | residual activity (WNK2 (human)): 100% | residual activity (PRKCB2 (human)): 99.2% | residual activity (PHKG2 (human)): 101% | residual activity (PRKACA (human)): 98.3% | residual activity (ITK (human)): 99.5% | residual activity (IKBKB (human)): 105% | residual activity (KDR (human)): 96.8% | residual activity (HIPK3 (human)): 98.1% | residual activity (MLTK (human)): 95% | residual activity (CDK2 CCNE1 (human)): 99.6% | residual activity (CHEK1 (human)): 108% | residual activity (CDC42BPB (human)): 90.9% | residual activity (ULK2 (human)): 96.7% | residual activity (GSK3B (human)): 118% | residual activity (MAPKAPK2 (human)): 102% | residual activity (GRK7 (human)): 99.6% | residual activity (AKT2 (human)): 97.9% | residual activity (FLT1 (human)): 97.4% | residual activity (TAOK3 (human)): 99% | residual activity (STK24 (human)): 89% | residual activity (MAP3K3 (human)): 97.8% | residual activity (NEK9 (human)): 103% | residual activity (MAP3K8 (human)): 99.6% | residual activity (TEC (human)): 119% | residual activity (ROS1 (human)): 96% | residual activity (CDK1 CCNA2 (human)): 103% | residual activity (OXSR1 (human)): 110% | residual activity (MAPK8 (human)): 99.5% | residual activity (CDK4 CCND1 (human)): 96.1% | residual activity (MAP3K14 (human)): 75.1% | residual activity (JAK2 JH1 JH2 (human)): 94.1% | residual activity (HIPK1 (human)): 104%

COc1cc2c(Nc3ccc(Br)cc3F)ncnc2cc1OCC1CCN(C)CC1
residual activity (CAMK2G (human)): 112% | residual activity (CSK (human)): 54.4% | residual activity (STK17A (human)): 92.4% | residual activity (MAPK1 (human)): 99.1% | residual activity (ULK1 (human)): 95.7% | residual activity (GRK4 (human)): 102% | residual activity (BRSK2 (human)): 103% | residual activity (ADRBK1 (human)): 92.2% | residual activity (WNK2 (human)): 100% | residual activity (PRKCB2 (human)): 91.6% | residual activity (PHKG2 (human)): 99.1% | residual activity (PRKACA (human)): 92.8% | residual activity (ITK (human)): 101% | residual activity (IKBKB (human)): 87.7% | residual activity (HIPK3 (human)): 99.5% | residual activity (CDK2 CCNE1 (human)): 101% | residual activity (CHEK1 (human)): 94.4% | residual activity (CDC42BPB (human)): 98% | residual activity (ULK2 (human)): 108% | residual activity (GSK3B (human)): 101% | residual activity (MAPKAPK2 (human)): 99.5% | residual activity (GRK7 (human)): 96.4% | residual activity (AKT2 (human)): 110% | residual activity (TAOK3 (human)): 98.4% | residual activity (STK24 (human)): 104% | residual activity (MAP3K3 (human)): 102% | residual activity (NEK9 (human)): 101% | residual activity (MAP3K8 (human)): 97.3% | residual activity (TEC (human)): 91.6% | residual activity (ROS1 (human)): 76.5% | residual activity (CDK1 CCNA2 (human)): 100% | residual activity (OXSR1 (human)): 100% | residual activity (TEK (human)): 50.8% | residual activity (MAPK8 (human)): 93.7% | residual activity (CDK4 CCND1 (human)): 94.8% | residual activity (MAP3K14 (human)): 155% | residual activity (JAK2 JH1 JH2 (human)): 102% | residual activity (HIPK1 (human)): 96.7%

N#C/C(=C1/Nc2ccccc2S1)c1ccnc(NCCc2cccnc2)n1
residual activity (AURKC (human)): 96% | residual activity (CAMK2G (human)): 111% | residual activity (CSK (human)): 93.4% | residual activity (STK17A (human)): 94% | residual activity (MAPK1 (human)): 93.5% | residual activity (ULK1 (human)): 98.5% | residual activity (GRK4 (human)): 103% | residual activity (BRSK2 (human)): 88.1% | residual activity (ADRBK1 (human)): 103% | residual activity (WNK2 (human)): 106% | residual activity (PHKG2 (human)): 99.5% | residual activity (PRKACA (human)): 103% | residual activity (ITK (human)): 98.8% | residual activity (KDR (human)): 99.7% | residual activity (HIPK3 (human)): 106% | residual activity (MLTK (human)): 90.4% | residual activity (CDK2 CCNE1 (human)): 82.7% | residual activity (CHEK1 (human)): 94.6% | residual activity (CDC42BPB (human)): 95.2% | residual activity (ULK2 (human)): 116% | residual activity (GSK3B (human)): 6.2% | residual activity (MAPKAPK2 (human)): 97.8% | residual activity (GRK7 (human)): 113% | residual activity (AKT2 (human)): 104% | residual activity (FLT1 (human)): 74% | residual activity (TAOK3 (human)): 87.5% | residual activity (STK24 (human)): 95.6% | residual activity (MAP3K3 (human)): 94.7% | residual activity (NEK9 (human)): 94.4% | residual activity (MAP3K8 (human)): 96% | residual activity (TEC (human)): 104% | residual activity (ROS1 (human)): 92.7% | residual activity (CDK1 CCNA2 (human)): 83% | residual activity (OXSR1 (human)): 99% | residual activity (TEK (human)): 97.5% | residual activity (MAPK8 (human)): 87.6% | residual activity (CDK4 CCND1 (human)): 90.4% | residual activity (MAP3K14 (human)): 109% | residual activity (JAK2 JH1 JH2 (human)): 106% | residual activity (HIPK1 (human)): 109%

N/C(=N\N=C/c1ccc(-c2cccc([N+](=O)[O-])c2)o1)N[N+](=O)[O-]
residual activity (AURKC (human)): 90.5% | residual activity (CAMK2G (human)): 82.1% | residual activity (CSK (human)): 98.5% | residual activity (STK17A (human)): 100% | residual activity (MAPK1 (human)): 99.7% | residual activity (ULK1 (human)): 93.7% | residual activity (GRK4 (human)): 95.5% | residual activity (BRSK2 (human)): 106% | residual activity (ADRBK1 (human)): 98.9% | residual activity (WNK2 (human)): 106% | residual activity (PRKCB2 (human)): 100% | residual activity (PHKG2 (human)): 100% | residual activity (PRKACA (human)): 93.3% | residual activity (ITK (human)): 99.5% | residual activity (IKBKB (human)): 86% | residual activity (KDR (human)): 96.7% | residual activity (MLTK (human)): 98% | residual activity (CDC42BPB (human)): 95.4% | residual activity (ULK2 (human)): 87.3% | residual activity (GSK3B (human)): 117% | residual activity (MAPKAPK2 (human)): 96.3% | residual activity (GRK7 (human)): 97% | residual activity (AKT2 (human)): 99.7% | residual activity (FLT1 (human)): 97.6% | residual activity (TAOK3 (human)): 99.5% | residual activity (STK24 (human)): 87.7% | residual activity (MAP3K3 (human)): 93.8% | residual activity (NEK9 (human)): 91.8% | residual activity (MAP3K8 (human)): 98.8% | residual activity (TEC (human)): 147% | residual activity (ROS1 (human)): 97.5% | residual activity (CDK1 CCNA2 (human)): 100% | residual activity (OXSR1 (human)): 102% | residual activity (TEK (human)): 99.6% | residual activity (MAPK8 (human)): 91.2% | residual activity (CDK4 CCND1 (human)): 96.6% | residual activity (MAP3K14 (human)): 77.9% | residual activity (JAK2 JH1 JH2 (human)): 98.8% | residual activity (HIPK1 (human)): 81.1%

O=c1cc(N2CCOCC2)oc2c(-c3ccccc3)cccc12
residual activity (AURKC (human)): 97% | residual activity (CAMK2G (human)): 90.5% | residual activity (CSK (human)): 88.1% | residual activity (STK17A (human)): 93.5% | residual activity (MAPK1 (human)): 70.3% | residual activity (ULK1 (human)): 102% | residual activity (GRK4 (human)): 96.5% | residual activity (BRSK2 (human)): 96.2% | residual activity (ADRBK1 (human)): 106% | residual activity (WNK2 (human)): 110% | residual activity (PRKCB2 (human)): 104% | residual activity (PHKG2 (human)): 97.2% | residual activity (PRKACA (human)): 98.3% | residual activity (ITK (human)): 93.3% | residual activity (IKBKB (human)): 100% | residual activity (KDR (human)): 87.2% | residual activity (HIPK3 (human)): 120% | residual activity (MLTK (human)): 94.2% | residual activity (CDK2 CCNE1 (human)): 93% | residual activity (CHEK1 (human)): 104% | residual activity (CDC42BPB (human)): 88.4% | residual activity (ULK2 (human)): 113% | residual activity (GSK3B (human)): 96.9% | residual activity (MAPKAPK2 (human)): 103% | residual activity (GRK7 (human)): 112% | residual activity (AKT2 (human)): 94% | residual activity (TAOK3 (human)): 88.2% | residual activity (STK24 (human)): 97.1% | residual activity (MAP3K3 (human)): 93.4% | residual activity (NEK9 (human)): 101% | residual activity (MAP3K8 (human)): 98.2% | residual activity (TEC (human)): 107% | residual activity (ROS1 (human)): 98.4% | residual activity (CDK1 CCNA2 (human)): 92% | residual activity (OXSR1 (human)): 118% | residual activity (TEK (human)): 89.2% | residual activity (MAPK8 (human)): 106% | residual activity (CDK4 CCND1 (human)): 111% | residual activity (MAP3K14 (human)): 101% | residual activity (JAK2 JH1 JH2 (human)): 95.1% | residual activity (HIPK1 (human)): 111%
